The values below come from US20250074901A1, “NOVEL HETEROARYL COMPOUNDS” (ICAGEN, LLC, priority 2021, published 2025).

For orientation: Emax means the greatest response seen or fitted, relative to the assay's reference. As a reminder, the EC50 is the midpoint of the concentration-response curve. A lower EC50 goes with greater potency.

The target of this test is T1, Kv7.2 (Homo sapiens, UniProt O43526).
T1 construct: expressed in transfected cells
Nature of the test: Activation of Kv7.2 (in vitro assay, concentration response curve). Format: cell-based. Conditions: for Emax: Kv7.2 activation max %; for EC50: activation of Kv7.2. Summed up: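 Agonist activity was measured in vitro across a range of compound concentrations and plotted as a sigmoidal concentration–response curve. EC50 is the concentration giving 50% of that compound's own maximal response (Emax).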

In the case of `O=C(Nc1cccc(Cl)c1)NC(CO)c1ccnc(OCC(F)F)c1` (stereo not shown) [Example 259, 1-(3-chlorophenyl)-3-[1-[2-(2,2-difluoroethoxy)pyridin-4-yl]-2-hydroxyethyl]urea], the Emax amounted to 63% and the EC50 was 240 nM.
Regarding `O=C(NCc1ccnc(SC(F)F)c1)N[C@H]1C[C@H](C(F)(F)F)C1` [Example 260, 1-[[2-(difluoro-methylsulfanyl)pyridin-4-yl]methyl]-3-[(1r,3r)-3-(trifluoromethyl)cyclobutyl]urea], the Emax stood at 51% and a half-maximal effect (EC50) was put at 370 nM.
The molecule `Cc1cc(NC(=O)NCc2ccnc(OC(F)F)c2)ccc1F` [Example 261, 1-[[2-(difluoromethoxy)pyridin-4-yl]methyl]-3-(4-fluoro-3-methylphenyl)urea] had an Emax of 40% and an EC50 of 70 nM.
Regarding `O=C(NCc1ccnc(OC(F)F)c1)Nc1cccc(OC(F)F)c1` [Example 262, 1-[3-(difluoromethoxy)phenyl]-3-[[2-(difluoromethoxy)pyridin-4-yl]methyl]urea], the Emax worked out at 65% and a half-maximal effect (EC50) was put at 3510 nM.
The matching figures for `O=C(NCc1ccnc(OC(F)F)c1)NC1CCC(OC(F)F)C1` (stereo not shown) [Example 264, 1-[3-(difluoromethoxy)cyclopentyl]-3-[[2-(difluoromethoxy)pyridin-4-yl]methyl]urea]: 49% and 430 nM.
Molecule `O=C(NCc1ccnc(OC(F)F)c1)N[C@H]1C[C@@H](OC(F)F)C1` [Example 265, 1-[(1s,3s)-3-(difluoromethoxy)cyclobutyl]-3-[[2-(difluoromethoxy)pyridin-4-yl]methyl]urea] returned an Emax of 47% and a half-maximal effective concentration (EC50) of 470 nM.
The molecule `O=C(NCc1ccnc(OC(F)F)c1)N[C@H]1CC[C@H](OC(F)F)CC1` [Example 266, 1-[(1r,4r)-4-(difluoromethoxy)cyclohexyl]-3-[[2-(difluoromethoxy)pyridin-4-yl]methyl]urea] gave an Emax of 49% and an EC50 of 300 nM.
Consider `O=C(NCc1ccnc(OC(F)F)c1)NC1CC(OC(F)(F)F)C1` (stereo not shown) [Example 267, 1-[[2-(difluoromethoxy)pyridin-4-yl]methyl]-3-[3-(trifluoromethoxy)cyclobutyl]urea], for which the Emax turned out to be 51% and the midpoint of the response, the EC50, lay at 290 nM.
The molecule `CC(CNC(=O)NCc1ccnc(OC(F)F)c1)OC(F)F` (stereo not shown) [Example 268, 1-[2-(difluoromethoxy)propyl]-3-[[2-(difluoromethoxy)pyridin-4-yl]methyl]urea] came in with a maximal effect (Emax) of 39% and an EC50 of 1880 nM.
As for `O=C(NCc1ccnc(OCC(F)(F)F)c1)N[C@H]1C[C@@H](F)C1` [Example 269, 1-((1s,3s)-3-fluorocyclobutyl)-3-[[2-(2,2,2-trifluoroethoxy)pyridin-4-yl]methyl]urea], the Emax worked out at 46% and the EC50 worked out at 350 nM.
For `O=C(Nc1cccc(Cl)c1F)NC(CO)c1ccnc(OC(F)F)c1` (stereo not shown) [Example 270, 1-(3-chloro-2-fluorophenyl)-3-[1-[2-(difluoromethoxy)pyridin-4-yl]-2-hydroxyethyl]urea], the Emax worked out at 65% and a half-maximal effect (EC50) was put at 170 nM.
On to `O=C(NCc1ccnc(OC(F)F)c1)N[C@H]1[C@@H]2CC(F)(F)C[C@@H]21` [Example 271, 1-[[2-(difluoromethoxy)pyridin-4-yl]methyl]-3-[rac-(1R,5S,6R)-3,3-difluoro-6-bicyclo[3.1.0]hexanyl]urea], for which the Emax came to 42% and the EC50 came out at 340 nM.
As for `O=C(NCc1ccnc(OC(F)F)c1)Nc1ccc(F)c(F)c1F` [Example 272, 1-[[2-(difluoromethoxy)pyridin-4-yl]methyl]-3-(2,3,4-trifluorophenyl)urea], the Emax was 44% and a half-maximal effect (EC50) was put at 910 nM.
Take `O=C(NCc1ccnc(OC(F)F)c1)N[C@@H](CC(F)(F)F)C(F)(F)F` [Example 273, 1-[[2-(difluoromethoxy)pyridin-4-yl]methyl]-3-[(2S)-1,1,1,4,4,4-hexafluorobutan-2-yl]urea]: the Emax stood at 48% and the EC50 amounted to 890 nM.
`O=C(NCc1ccnc(CC(F)(F)F)c1)Nc1ccc(F)c(F)c1` [Example 274, 1-(3,4-difluorophenyl)-3-[[2-(2,2,2-trifluoroethyl)pyridin-4-yl]methyl]urea] showed an Emax of 48% and an EC50 of 360 nM.
`O=C(NCc1ccnc(CC(F)(F)F)c1)Nc1cccc(Cl)c1` [Example 275, 1-(3-chlorophenyl)-3-[[2-(2,2,2-trifluoroethyl)pyridin-4-yl]methyl]urea] gave an Emax of 59% and an EC50 of 550 nM.
`O=C(NCc1cc(OC(F)F)ncc1F)N[C@H]1C[C@H](C(F)(F)F)C1` [Example 277, 1-[[2-(difluoromethoxy)-5-fluoropyridin-4-yl]methyl]-3-[(1r,3r)-3-(trifluoromethyl)cyclobutyl]urea] gave an Emax of 58% and an EC50 of 330 nM.
Regarding `O=C(NCc1cc(OCC(F)(F)F)ncn1)N[C@H]1C[C@H](C(F)(F)F)C1` [Example 279, 1-[[6-(2,2,2-trifluoroethoxy)pyrimidin-4-yl]methyl]-3-[(1r,3r)-3-(trifluoromethyl)cyclobutyl]urea], the Emax is 75% and the EC50 amounted to 170 nM.
In turn, `Cc1cccc(NC(=O)NC(CO)c2ccnc(OC(F)F)c2)c1` (stereo not shown) [Example 280, 1-[1-[2-(difluoromethoxy)pyridin-4-yl]-2-hydroxyethyl]-3-(3-methylphenyl)urea] yielded an Emax of 67% and an EC50 of 250 nM.
For the molecule `COCC(Oc1cc(CNC(=O)N[C@H]2C[C@H](C(F)(F)F)C2)ccn1)C(F)(F)F` (stereo partly shown) [Example 281, 1-[[2-(1,1,1-trifluoro-3-methoxypropan-2-yl)oxypyridin-4-yl]methyl]-3-[3-(trifluoromethyl)cyclobutyl]urea], the Emax turned out to be 59% and a half-maximal response (EC50) required 200 nM.
The molecule `O=C(NCc1cc(OC(F)F)ncn1)N[C@H]1C[C@H](C(F)(F)F)C1` [Example 282, 1-[[6-(difluoromethoxy)pyrimidin-4-yl]methyl]-3-[(1r,3r)-3-(trifluoromethyl)cyclobutyl]urea] had an Emax of 78% and an EC50 of 90 nM.
For `O=C(NC(CO)c1ccnc(OCC(F)(F)F)c1)NC12CC(F)(C1)C2` (stereo not shown) [Example 283, 1-(3-fluoro-1-bicyclo[1.1.1]pentanyl)-3-[2-hydroxy-1-[2-(2,2,2-trifluoroethoxy)pyridin-4-yl]ethyl]urea], the Emax stood at 68% and the EC50 was found to be 490 nM.
`O=C(NCc1ccnc(OCC(F)(F)F)c1)NCC1(C(F)(F)F)CC1` [Example 284, 1-[[2-(2,2,2-trifluoroethoxy)pyridin-4-yl]methyl]-3-[[1-(trifluoromethyl)cyclopropyl]methyl]urea]: the Emax came out at 82% and the EC50 was determined as 990 nM.
With `O=C(NCc1ccnc(OCC(F)(F)F)c1)NC(C(F)(F)F)C(F)(F)F` [Example 285, 1-(1,1,1,3,3,3-hexafluoropropan-2-yl)-3-[[2-(2,2,2-trifluoroethoxy)pyridin-4-yl]methyl]urea], the Emax is 87% and the EC50 is 380 nM.
On to `C[C@@H](O)C(NC(=O)N[C@H]1C[C@H](C(F)(F)F)C1)c1ccnc(OC(F)F)c1` (stereo partly drawn) [Example 286, 1-[(2R)-1-[2-(difluoromethoxy)pyridin-4-yl]-2-hydroxypropyl]-3-[(1r,3r)-3-(trifluoromethyl)cyclobutyl]urea], for which the Emax was 66% and it took 550 nM to reach a half-maximal effect (EC50).
On to `C[C@H](O)C(NC(=O)N[C@H]1C[C@H](C(F)(F)F)C1)c1ccnc(OC(F)F)c1` (stereo partly drawn) [Example 287, 1-[(2S)-1-[2-(difluoromethoxy)pyridin-4-yl]-2-hydroxypropyl]-3-[(1r,3r)-3-(trifluoromethyl)cyclobutyl]urea], for which the maximal effect (Emax) came out at 96% and the EC50 was found to be 740 nM.
On to `O=C(NCc1ccnc(OC(F)F)c1)N[C@@H]1CC[C@H](OC(F)(F)F)C1` [Example 288, 1-[[2-(difluoromethoxy)pyridin-4-yl]methyl]-3-[(1R,3S)-3-(trifluoromethoxy)cyclopentyl]urea], for which the Emax worked out at 68% and a half-maximal effect (EC50) was put at 250 nM.
With `O=C(NCc1ccnc(OC(F)F)c1)NCC(O)C12CC(F)(C1)C2` (stereo not shown) [Example 289, 1-[[2-(difluoromethoxy)pyridin-4-yl]methyl]-3-[2-(3-fluoro-1-bicyclo[1.1.1]pentanyl)-2-hydroxyethyl]urea], the Emax stood at 40% and the EC50 was determined as 980 nM.
The molecule `O=C(NCc1ccnc(OCC(F)(F)F)c1)NCC(O)C12CC(F)(C1)C2` (stereo not shown) [Example 290, 1-[2-(3-fluoro-1-bicyclo[1.1.1]pentanyl)-2-hydroxyethyl]-3-[[2-(2,2,2-trifluoroethoxy)pyridin-4-yl]methyl]urea] registered an Emax of 81% and an EC50 of 890 nM.
The matching figures for `O=C(NCc1ccnc(OC(F)F)c1)NCC(O)C12CC(C1)C2` (stereo not shown) [Example 291, 1-[2-(1-bicyclo[1.1.1]pentanyl)-2-hydroxyethyl]-3-[[2-(difluoromethoxy)pyridin-4-yl]methyl]urea]: 64% and 460 nM.
The corresponding values for `O=C(NCc1ccnc(OCC(F)(F)F)c1)NCC(O)C12CC(C1)C2` (stereo not shown) [Example 292, 1-[2-(1-bicyclo[1.1.1]pentanyl)-2-hydroxyethyl]-3-[[2-(2,2,2-trifluoroethoxy)pyridin-4-yl]methyl]urea] are 62% and 620 nM.
Turning to `O=C(NCc1ccnc(OCC(F)(F)F)c1)N[C@H]1C[C@H](C(F)F)C1` [Example 293, 1-[(1r,3r)-3-(difluoromethyl)cyclobutyl]-3-[[2-(2,2,2-trifluoroethoxy)pyridin-4-yl]methyl]urea], the Emax was 93% and the EC50 was 610 nM.
